Read-outs that look alike come from different tables or passages of the source.
Tests used:
Beas-2B cells = assay: Cell viability / cytotoxicity (MTT assay) in Beas-2B cells; type: cell-based, human; details: 24 h, DMSO = 100
Method: Concurrent with the gene expression analysis, the cytotoxicity of the chalcone derivatives was determined using the MTT assay.
Mad. Chem. 2007, 15, 2952-2962. […] Four hours before the end of incubation, the medium was removed and 100 μL of MTT (5 mg/mL in serum free medium) was added to each well. The MTT was removed after 4 h, cells were washed with PBS, and 100 μL DMSO was added to each well to dissolve the water-insoluble MTT-formazan crystals. The absorbance was recorded at 570 nm in a plate reader (Molecular Devices, Sunnyvale, Calif.).

Nrf2 = assay: Expression of Nrf2-regulated genes GCLM and NQO1 by qRT-PCR in Beas-2B cells (screen); type: cell-based, human; details: Homo sapiens, BEAS-2B, 16 h
Method: To investigate the potency of the presently disclosed chalcone derivatives to activate Nrf2, the expression of antioxidant genes, GCLM and NADPH-NQO1, two well characterized transcriptional targets of Nrf2, were measured as surrogate markers. By “marker” is meant any protein or polynucleotide having an alteration in expression level or activity that is associated with a disease, disorder, or condition. It has been previously shown that oxidants or small molecule activators of Nrf2 increase GCLM and NQO1 in cells or tissues of wild-type, but not in Nrf2-deficient mice. Osburn, W. O., et al., Genetic or pharmacologic amplification of Nrf2 signaling inhibits acute inflammatory liver injury in mice. Toxicol. Sci. 2008, 104(1), 218-227. […]
RNA was isolated and gene expression was measured after 16 h.
Total RNA was extracted from cells/tissue using Qiagen RNeasy kit (Qiagen Corporation, Valencia, Calif.) and reverse transcription was performed by using random hexamers and MultiScribe reverse transcriptase according to the manufacturer's recommendations (Applied Biosystems, Foster City, Calif., USA). Quantitative real-time RT-PCR analyses of Nrf2, NQO1, HO1, and GCLM were performed by using Assay-on-Demand primers and probe sets from Applied Biosystems. Assays were performed using the ABI 7000 Taqman system (Applied Biosystems, Foster City, Calif.). β-actin was used for normalization.

[1] = DMSO = 1.0 (Table 2), read-out: Relative Fold Change GCLM
[2] = DMSO = 1.0 (Table 2), read-out: Relative Fold Change NQO1
[3] = DMSO = 1 (Table 3), read-out: Relative Fold Change GCLM
[4] = DMSO = 1 (Table 3), read-out: Relative Fold Change NQO1

| Structure (SMILES) | % Cell Viability (Beas-2B cells) [%] | fold induction at 10 µM (Nrf2; [1]) | fold induction at 10 µM (Nrf2; [2]) | fold induction at 10 µM (Nrf2; [3]) | fold induction at 10 µM (Nrf2; [4]) |
| --- | --- | --- | --- | --- | --- |
| O=C(/C=C/c1ccccc1C(F)(F)F)c1ccccc1 [Compound 2a, (E)-1-phenyl-3-(2-(trifluoromethyl)phenyl)prop-2-en-1-one] | 144.8 | 5 | 5.3 | 5 | 5.3 |
| COc1cccc(C(=O)/C=C/c2ccccc2C(F)(F)F)c1 [Compound 2c, (E)-1-(3-methoxyphenyl)-3-(2-(trifluoromethyl)phenyl)prop-2-en-1-one] | 96.6 | 5.6 | 4.3 | 5.6 | 4.3 |
| COc1ccc(C(=O)/C=C/c2ccccc2C(F)(F)F)cc1 [Compound 2d, (E)-1-(4-methoxyphenyl)-3-(2-(trifluoromethyl)phenyl)prop-2-en-1-one] | 96 | 5.4 | 4.6 | 5.4 | 4.6 |
| COc1ccc(C(=O)/C=C/c2ccccc2C(F)(F)F)c(OC)c1 [Compound 2e, (E)-1-(2,4-dimethoxyphenyl)-3-(2-(trifluoromethyl)phenyl)prop-2-en-1-one] | 105 | 5.4 | 4.5 | 5.4 | 4.5 |
| COc1cccc(OC)c1C(=O)/C=C/c1ccccc1C(F)(F)F [Compound 2f, (E)-1-(2,6-dimethoxyphenyl)-3-(2-(trifluoromethyl)phenyl)prop-2-en-1-one] | 101.1 | 5.7 | 5.3 | 5.7 | 5.3 |
| COc1cc(OC)cc(C(=O)/C=C/c2ccccc2C(F)(F)F)c1 [Compound 2i, (E)-1-(3,5-dimethoxyphenyl)-3-(2-(trifluoromethyl)phenyl)prop-2-en-1-one] | 87.1 | 4 | 3.7 | 4 | 3.7 |
| COc1ccc(C(=O)/C=C/c2ccccc2C(F)(F)F)c(OC)c1OC [Compound 2k, (E)-1-(2,3,4-trimethoxyphenyl)-3-(2-(trifluoromethyl)phenyl)prop-2-en-1-one] | 101.6 | 5.4 | 4.1 | 5.4 | 4.1 |
| COc1cc(OC)c(C(=O)/C=C/c2ccccc2C(F)(F)F)c(OC)c1 [Compound 2l, (E)-1-(2,4,6-trimethoxyphenyl)-3-(2-(trifluoromethyl)phenyl)prop-2-en-1-one] | 145.3 | 4.4 | 4.3 | 4.4 | 4.3 |
| COc1cccc(C(=O)/C=C/c2cccc(C(F)(F)F)c2)c1 [Compound 3c, (E)-1-(3-methoxyphenyl)-3-(3-(trifluoromethyl)phenyl)prop-2-en-1-one] | 95.3 | 4.6 | 3.5 | 4.6 | 3.5 |
| COc1ccc(C(=O)/C=C/c2cccc(C(F)(F)F)c2)c(OC)c1 [Compound 3e, (E)-1-(2,4-dimethoxyphenyl)-3-(3-(trifluoromethyl)phenyl)prop-2-en-1-one] | – | 4.6 | 4 | – | – |
| COc1cccc(OC)c1C(=O)/C=C/c1cccc(C(F)(F)F)c1 [Compound 3f, (E)-1-(2,6-dimethoxyphenyl)-3-(3-(trifluoromethyl)phenyl)prop-2-en-1-one] | – | 1.8 | 0.6 | – | – |
| COc1ccc(OC)c(C(=O)/C=C/c2cccc(C(F)(F)F)c2)c1 [Compound 3g, (E)-1-(2,5-dimethoxyphenyl)-3-(3-(trifluoromethyl)phenyl)prop-2-en-1-one] | – | 1.8 | 0.8 | – | – |
| COc1ccc(C(=O)/C=C/c2cccc(C(F)(F)F)c2)cc1OC [Compound 3h, (E)-1-(3,4-dimethoxyphenyl)-3-(3-(trifluoromethyl)phenyl)prop-2-en-1-one] | – | 4.1 | 2.9 | – | – |
| COc1cc(OC)cc(C(=O)/C=C/c2cccc(C(F)(F)F)c2)c1 [Compound 3i, (E)-1-(3,5-dimethoxyphenyl)-3-(3-(trifluoromethyl)phenyl)prop-2-en-1-one] | 108.2 | 3.8 | 3.9 | 3.8 | 3.9 |
| COc1cc(C(=O)/C=C/c2cccc(C(F)(F)F)c2)cc(OC)c1OC [Compound 3j, (E)-1-(3,4,5-trimethoxyphenyl)-3-(3-(trifluoromethyl)phenyl)prop-2-en-1-one] | – | 1.7 | 0.8 | – | – |
| COc1ccc(C(=O)/C=C/c2cccc(C(F)(F)F)c2)c(OC)c1OC [Compound 3k, (E)-1-(2,3,4-trimethoxyphenyl)-3-(3-(trifluoromethyl)phenyl)prop-2-en-1-one] | – | 3.6 | 3.2 | – | – |
| COc1cc(OC)c(C(=O)/C=C/c2cccc(C(F)(F)F)c2)c(OC)c1 [Compound 3l, (E)-1-(2,4,6-trimethoxyphenyl)-3-(3-(trifluoromethyl)phenyl)prop-2-en-1-one] | – | 1.4 | 0.7 | – | – |
| O=C(/C=C/c1ccc(C(F)(F)F)cc1)c1ccccc1 [Compound 4a, (E)-1-phenyl-3-(4-(trifluoromethyl)phenyl)prop-2-en-1-one] | – | 3.31 | 2.9 | – | – |
| COc1ccccc1C(=O)/C=C/c1ccc(C(F)(F)F)cc1 [Compound 4b, (E)-1-(2-methoxyphenyl)-3-(4-(trifluoromethyl)phenyl)prop-2-en-1-one] | 91 | 4.3 | 5.4 | 4.3 | 5.4 |
| COc1cccc(C(=O)/C=C/c2ccc(C(F)(F)F)cc2)c1 [Compound 4c, (E)-1-(3-methoxyphenyl)-4-(4-(trifluoromethyl)phenyl)prop-2-en-1-one] | – | 2.9 | 3.1 | – | – |
| COc1ccc(C(=O)/C=C/c2ccc(C(F)(F)F)cc2)cc1 [Compound 4d, (E)-1-(4-methoxyphenyl)-3-(4-(trifluoromethyl)phenyl)prop-2-en-1-one] | 104.1 | 3.5 | 4.6 | 3.5 | 4.6 |
| COc1ccc(C(=O)/C=C/c2ccc(C(F)(F)F)cc2)c(OC)c1 [Compound 4e, (E)-1-(2,4-dimethoxyphenyl)-3-(4-(trifluoromethyl)phenyl)prop-2-en-1-one] | 92.6 | 5 | 4.8 | 5 | 4.8 |
| COc1cccc(OC)c1C(=O)/C=C/c1ccc(C(F)(F)F)cc1 [Compound 4f, (E)-1-(2,6-dimethoxyphenyl)-3-(4-(trifluoromethyl)phenyl)prop-2-en-1-one] | – | 1.4 | 0.6 | – | – |
| COc1ccc(OC)c(C(=O)/C=C/c2ccc(C(F)(F)F)cc2)c1 [Compound 4g] | 91.6 | 4.1 | 4 | 4.1 | 4 |
| COc1ccc(C(=O)/C=C/c2ccc(C(F)(F)F)cc2)cc1OC [Compound 4h] | – | 3.5 | 2.7 | – | – |
| COc1cc(C(=O)/C=C/c2ccc(C(F)(F)F)cc2)cc(OC)c1OC [Compound 4i] | – | 4.1 | 3.7 | – | – |
| COc1ccc(C(=O)/C=C/c2ccc(C(F)(F)F)cc2)c(OC)c1OC [Compound 4j] | 100.1 | 4.1 | 3.9 | 4.1 | 3.7 |
| COc1cc(OC)c(C(=O)/C=C/c2ccc(C(F)(F)F)cc2)c(OC)c1 [Compound 4k] | – | 2.4 | 2.4 | – | – |
| COc1ccc(OC)c(C(=O)/C=C/c2ccccc2[N+](=O)[O-])c1 [Compound 5g] | – | 1.7 | 0.7 | – | – |
| COc1ccc(C(=O)/C=C/c2ccccc2[N+](=O)[O-])c(OC)c1OC [Compound 5k, (E)-1-(2,3,4-trimethoxyphenyl)-3-(2-nitrophenyl)prop-2-en-1-one] | – | 2.9 | 3.3 | – | – |
